The results in this text go back to patent US8674113B2, “Compounds” (Boehringer Ingelheim International GmbH, priority 2010, dated 2014).

The target in this test is mPGES-1 in A549 cells (Homo sapiens (Human), UniProt O14684). Briefly: A549 cell-based assay (PGE2 formation, 50% human serum). The note with it: IL-1β 5 ng/ml, 10 nM arachidonic acid, 20-24 h, read-out: mPGES-1 inhibitory effect IC50 in the cell assay. How it is done:
Although the enzymatic assay is a high throughput assay the disadvantage is that it uses a recombinant protein which is not in its natural environment. Accordingly a cellular assay was established in which a cell line of human origin (A549) expressing the mPGES-1 protein was used. In addition in order to mimic the situation in humans in which compounds can be bound to plasma proteins 50% human serum is added in the assay.
A549 cells (ATCC: CCL-185) are grown to about 90% confluence in F-12K Nutrient Mixture (Kaighn's Mod. Gibco) containing 10% FBS in a humified incubator at 37° C. and 5% CO2. Cells were detached using Trypsin-EDTA. A549 cells were seeded in a 384-well collagene plate at a density of 7000 cells/well (50 μl) in F-12 medium containing 1% Penicillin-Streptomycin and 50% human serum. The cells were allowed to attach for 3-4 h. After that the cells were incubated for 20-24 h in F-12k medium supplemented with 50% human serum, 1% Penicillin-Streptomycin and containing IL-1β at a final concentration of 5 ng/ml as well as 10 nM arachidonic acid in the presence of a vehicle or a test compound. The total volume is 100 μl.
Concentrations of PGE2 in the cell free medium (10 μl) were measured using a commercially available HTRF kit from Cisbio (as described above). The PGE2 formation in the absence of test compound was taken as 100%.
IC50 values were derived from at 6-8 point titrations using conventional software.

One may read the IC50 as the concentration needed to halve the response being measured.

Chain of mPGES-1 in A549 cells (O14684 whole entry): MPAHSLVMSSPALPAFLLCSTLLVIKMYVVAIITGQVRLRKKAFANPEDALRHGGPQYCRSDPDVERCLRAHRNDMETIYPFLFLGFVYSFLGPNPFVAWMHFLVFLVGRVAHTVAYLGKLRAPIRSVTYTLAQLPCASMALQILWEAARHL

As to `Cc1ccnc(C(=O)NCc2ccc(Cl)c(Nc3nc4cc(C(=O)N[C@H]5CC[C@H](C(F)(F)F)CC5)c(N5CC6CC6C5)cc4n3C)c2Cl)c1` (stereo partly drawn) [Example 196], the half-maximal inhibitory concentration (IC50) amounted to 9 nM. Then `CNc1cncc(C(=O)NCc2ccc(Cl)c(Nc3nc4cc(C(=O)N[C@H]5CC[C@H](C(F)(F)F)CC5)c(N5CC6CC6C5)cc4n3C)c2Cl)c1` (stereo partly drawn) [Example 198], with more than 100 nM. Then `Cc1ccc(C(=O)NCc2ccc(Cl)c(Nc3nc4cc(C(=O)N[C@H]5CC[C@H](C(F)(F)F)CC5)c(N5CC6CC6C5)cc4n3C)c2Cl)nc1C` (stereo partly drawn) [Example 199], with 8 nM. Regarding `COc1cncc(C(=O)NCc2ccc(Cl)c(Nc3nc4cc(C(=O)N[C@H]5CC[C@H](C(F)(F)F)CC5)c(N5CC6CC6C5)cc4n3C)c2Cl)c1` (stereo partly drawn) [Example 200], the half-inhibitory concentration (IC50) is more than 100 nM. As to `Cn1c(Nc2c(Cl)ccc(CNC(=O)c3c(F)cncc3F)c2Cl)nc2cc(C(=O)N[C@H]3CC[C@H](C(F)(F)F)CC3)c(N3CC4CC4C3)cc21` (stereo partly drawn) [Example 201], the IC50 worked out at 6 nM. `Cc1cc(C)nc(C(=O)NCc2ccc(Cl)c(Nc3nc4cc(C(=O)N[C@H]5CC[C@H](C(F)(F)F)CC5)c(N5CC6CC6C5)cc4n3C)c2Cl)c1` (stereo partly drawn) [Example 202]: the IC50 was determined as 57 nM. In the case of `CNc1cc(C(=O)NCc2ccc(Cl)c(Nc3nc4cc(C(=O)N[C@H]5CC[C@H](C(F)(F)F)CC5)c(N5CC6CC6C5)cc4n3C)c2Cl)ccn1` (stereo partly drawn) [Example 203], the IC50 stood at 46 nM. Take `COc1cccc(C(=O)NCc2ccc(Cl)c(Nc3nc4cc(C(=O)N[C@H]5CC[C@H](C(F)(F)F)CC5)c(N5CC6CC6C5)cc4n3C)c2Cl)n1` (stereo partly drawn) [Example 204]: the IC50 turned out to be 49 nM.

`Cn1c(Nc2c(Cl)ccc(CNC(=O)c3cncc(O)c3)c2Cl)nc2cc(C(=O)N[C@H]3CC[C@H](C(F)(F)F)CC3)c(N3CC4CC4C3)cc21` (stereo partly drawn) [Example 205]: the IC50 is more than 100 nM. Regarding `Cn1c(Nc2c(Cl)ccc(CNC(=O)c3cccc(CO)n3)c2Cl)nc2cc(C(=O)N[C@H]3CC[C@H](C(F)(F)F)CC3)c(N3CC4CC4C3)cc21` (stereo partly drawn) [Example 206], the IC50 is 42 nM.

Consider `Cn1c(Nc2c(Cl)ccc(CNC(=O)c3cc(CO)ccn3)c2Cl)nc2cc(C(=O)N[C@H]3CC[C@H](C(F)(F)F)CC3)c(N3CC4CC4C3)cc21` (stereo partly drawn) [Example 207], for which the IC50 worked out at 170 nM. For `Cn1c(Nc2c(Cl)ccc(CNC(=O)c3cccc(C#N)n3)c2Cl)nc2cc(C(=O)N[C@H]3CC[C@H](C(F)(F)F)CC3)c(N3CC4CC4C3)cc21` (stereo partly drawn) [Example 208], the IC50 amounted to 21 nM.

With `Cn1c(Nc2c(Cl)ccc(CNC(=O)c3cc(C#N)ccn3)c2Cl)nc2cc(C(=O)N[C@H]3CC[C@H](C(F)(F)F)CC3)c(N3CC4CC4C3)cc21` (stereo partly drawn) [Example 209], the IC50 was 6.5 nM.

As for `CCn1c(C(=O)NCc2ccc(Cl)c(Nc3nc4cc(C(=O)N[C@H]5CC[C@H](C(F)(F)F)CC5)c(N5CC6CC6C5)cc4n3C)c2Cl)cccc1=O` (stereo partly drawn) [Example 210], the IC50 came out at 8 nM. On to `COc1ncccc1C(=O)NCc1ccc(Cl)c(Nc2nc3cc(C(=O)N[C@H]4CC[C@H](C(F)(F)F)CC4)c(N4CC5CC5C4)cc3n2C)c1Cl` (stereo partly drawn) [Example 211], for which the half-maximal inhibitory concentration (IC50) is 106 nM. Turning to `Cn1c(Nc2c(Cl)ccc(CNC(=O)c3ccc(C#N)nc3)c2Cl)nc2cc(C(=O)N[C@H]3CC[C@H](C(F)(F)F)CC3)c(N3CC4CC4C3)cc21` (stereo partly drawn) [Example 212], the IC50 was 1.7 nM.

For the compound `COc1cncc(C(=O)NCc2ccc(Cl)c(Nc3nc4cc(C(=O)N[C@H]5CC[C@H](C(F)(F)F)CC5)c(N5CC6CC6C5)cc4n3C)c2Cl)n1` (stereo partly drawn) [Example 213], the IC50 is 41 nM. For `CNc1cncc(C(=O)NCc2ccc(Cl)c(Nc3nc4cc(C(=O)N[C@H]5CC[C@H](C(F)(F)F)CC5)c(N5CC6CC6C5)cc4n3C)c2Cl)n1` (stereo partly drawn) [Example 214], the IC50 turned out to be 113 nM. Take `Cn1c(Nc2c(Cl)ccc(CNC(=O)c3ncn[nH]3)c2Cl)nc2cc(C(=O)N[C@H]3CC[C@H](C(F)(F)F)CC3)c(N3CC4CC4C3)cc21` (stereo partly drawn) [Example 215]: the IC50 was more than 100 nM. For the compound `Cn1ccnc1C(=O)NCc1ccc(Cl)c(Nc2nc3cc(C(=O)N[C@H]4CC[C@H](C(F)(F)F)CC4)c(N4CC5CC5C4)cc3n2C)c1Cl` (stereo partly drawn) [Example 216], the IC50 amounted to 27 nM. Consider `Cn1cncc1C(=O)NCc1ccc(Cl)c(Nc2nc3cc(C(=O)N[C@H]4CC[C@H](C(F)(F)F)CC4)c(N4CC5CC5C4)cc3n2C)c1Cl` (stereo partly drawn) [Example 217], for which the IC50 was more than 100 nM. With `Cn1c(Nc2c(Cl)ccc(CNC(=O)c3cc(O)[nH]n3)c2Cl)nc2cc(C(=O)N[C@H]3CC[C@H](C(F)(F)F)CC3)c(N3CC4CC4C3)cc21` (stereo partly drawn) [Example 218], the 50% inhibitory concentration (IC50) worked out at 98 nM. For the compound `Cc1cc(C(=O)NCc2ccc(Cl)c(Nc3nc4cc(C(=O)N[C@H]5CC[C@H](C(F)(F)F)CC5)c(N5CC6CC6C5)cc4n3C)c2Cl)nn1C` (stereo partly drawn) [Example 219], the IC50 was more than 100 nM.

Take `Cn1c(Nc2c(Cl)ccc(CNC(=O)c3c[nH]cn3)c2Cl)nc2cc(C(=O)N[C@H]3CC[C@H](C(F)(F)F)CC3)c(N3CC4CC4C3)cc21` (stereo partly drawn) [Example 220]: the IC50 came to 119 nM. Turning to `Cn1c(Nc2c(Cl)ccc(CNC(=O)c3cn[nH]c3)c2Cl)nc2cc(C(=O)N[C@H]3CC[C@H](C(F)(F)F)CC3)c(N3CC4CC4C3)cc21` (stereo partly drawn) [Example 221], the IC50 was 53 nM. In the case of `Cc1noc(N)c1C(=O)NCc1ccc(Cl)c(Nc2nc3cc(C(=O)N[C@H]4CC[C@H](C(F)(F)F)CC4)c(N4CC5CC5C4)cc3n2C)c1Cl` (stereo partly drawn) [Example 222], the IC50 amounted to 100 nM. As for `Cc1cc(C(=O)NCc2ccc(Cl)c(Nc3nc4cc(C(=O)N[C@H]5CC[C@H](C(F)(F)F)CC5)c(N5CC6CC6C5)cc4n3C)c2Cl)no1` (stereo partly drawn) [Example 223], the IC50 amounted to 12 nM.

For the compound `Cc1noc(C)c1C(=O)NCc1ccc(Cl)c(Nc2nc3cc(C(=O)N[C@H]4CC[C@H](C(F)(F)F)CC4)c(N4CC5CC5C4)cc3n2C)c1Cl` (stereo partly drawn) [Example 224], the IC50 came to 67 nM. In the case of `Cc1nc(N)sc1C(=O)NCc1ccc(Cl)c(Nc2nc3cc(C(=O)N[C@H]4CC[C@H](C(F)(F)F)CC4)c(N4CC5CC5C4)cc3n2C)c1Cl` (stereo partly drawn) [Example 225], the IC50 came out at 71 nM.

As to `Cn1c(Nc2c(Cl)ccc(CNC(=O)c3cnc(N)s3)c2Cl)nc2cc(C(=O)N[C@H]3CC[C@H](C(F)(F)F)CC3)c(N3CC4CC4C3)cc21` (stereo partly drawn) [Example 226], the IC50 was 98 nM. `Cc1nc(C)c(C(=O)NCc2ccc(Cl)c(Nc3nc4cc(C(=O)N[C@H]5CC[C@H](C(F)(F)F)CC5)c(N5CC6CC6C5)cc4n3C)c2Cl)s1` (stereo partly drawn) [Example 227]: the IC50 was 43 nM. Then `Cc1nc(C(=O)NCc2ccc(Cl)c(Nc3nc4cc(C(=O)N[C@H]5CC[C@H](C(F)(F)F)CC5)c(N5CC6CC6C5)cc4n3C)c2Cl)cs1` (stereo partly drawn) [Example 228], with more than 100 nM; and `Cn1c(Nc2c(Cl)ccc(CNC(=O)c3csc(N)n3)c2Cl)nc2cc(C(=O)N[C@H]3CC[C@H](C(F)(F)F)CC3)c(N3CC4CC4C3)cc21` (stereo partly drawn) [Example 229], with 4.6 nM; and `Cn1c(Nc2c(Cl)ccc(CNC(=O)c3cc[nH]n3)c2Cl)nc2cc(C(=O)N[C@H]3CC[C@H](C(F)(F)F)CC3)c(N3CC4CC4C3)cc21` (stereo partly drawn) [Example 230], with 40 nM. Then `Cn1c(Nc2c(Cl)ccc(CNC(=O)OC(C)(C)C)c2Cl)nc2cc(C(=O)NCCC(F)(F)F)c(N3CC4CC4C3)cc21` (stereo not drawn) [Example 266], with 23 nM; and `Cn1c(Nc2c(Cl)ccc(CNC(=O)C(C)(C)C)c2Cl)nc2cc(C(=O)Nc3ccc(OC(F)(F)F)cc3)c(N3CCC(F)CC3)cc21` [Example 267], with 1.7 nM.
